Results from patent publication US20220089609A1, “SUBSTITUTED QUINAZOLINONE DERIVATIVES AND THEIR USE AS POSITIVE ALLOSTERIC MODULATORS OF MGLUR4” (DOMAIN THERAPEUTICS, priority 2018, published 2022).
Where a name gives a salt, the structure may show the parent alone.

Target: T1, human mGluR4 (hmGluR4) (Homo sapiens, UniProt Q14833)
T1 construct: expressed in transfected cells; host or cells: HEK-293 cells, transient co-transfection by electroporation
Assay: Calcium assay EC50 determination, positive allosteric modulator activity on hmGluR4 transiently over-expressed in HEK-293 cells
Format: cell-based
Settings: PAM mode with EC20 glutamate; hmGluR4 in HEK-293 cells; intracellular calcium (Fluo4AM); read-out: mGluR4 positive allosteric modulator activity, half maximal effective concentration (EC50)
In short: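 HEK-293 cells transiently co-transfected with hmGluR4, chimeric G protein and glutamate transporters; Fluo4AM calcium read (ex 485/em 525 nm) on FLIPR Tetra. Compound alone 10 min for agonism, then EC20 glutamate with 3 min recording for PAM activity, versus buffer or EC20 glutamate basal.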

T1 sequence (Q14833 33-912): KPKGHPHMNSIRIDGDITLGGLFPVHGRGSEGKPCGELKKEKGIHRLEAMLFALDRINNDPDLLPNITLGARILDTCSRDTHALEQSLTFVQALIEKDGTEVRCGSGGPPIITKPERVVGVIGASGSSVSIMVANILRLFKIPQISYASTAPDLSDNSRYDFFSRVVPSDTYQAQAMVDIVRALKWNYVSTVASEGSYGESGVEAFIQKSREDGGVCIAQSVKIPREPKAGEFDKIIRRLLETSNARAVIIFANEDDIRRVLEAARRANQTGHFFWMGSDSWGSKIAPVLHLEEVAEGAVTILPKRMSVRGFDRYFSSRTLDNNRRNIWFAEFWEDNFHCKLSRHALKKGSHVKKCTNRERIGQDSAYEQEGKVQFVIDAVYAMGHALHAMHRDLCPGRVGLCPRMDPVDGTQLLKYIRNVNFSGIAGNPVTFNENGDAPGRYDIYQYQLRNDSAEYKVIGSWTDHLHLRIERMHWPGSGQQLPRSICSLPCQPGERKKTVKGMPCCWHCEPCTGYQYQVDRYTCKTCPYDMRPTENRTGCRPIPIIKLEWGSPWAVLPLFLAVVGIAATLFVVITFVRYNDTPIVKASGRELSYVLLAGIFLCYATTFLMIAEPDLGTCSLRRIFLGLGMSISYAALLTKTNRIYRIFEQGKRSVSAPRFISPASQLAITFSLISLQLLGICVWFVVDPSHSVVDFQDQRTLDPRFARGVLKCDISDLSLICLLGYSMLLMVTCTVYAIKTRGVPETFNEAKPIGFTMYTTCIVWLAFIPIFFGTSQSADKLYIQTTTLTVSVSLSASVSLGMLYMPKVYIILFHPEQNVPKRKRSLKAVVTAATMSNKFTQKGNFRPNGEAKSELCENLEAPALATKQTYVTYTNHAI

SMILES	EC50
Cc1cc(OCCCc2ccncc2)cc2c(=O)[nH]c(-c3cc4cccn4cn3)nc12 [Compound 106, 8-methyl-6-(3-pyridin-4-yl-propoxy)-2-pyrrolo[1,2-c]pyrimidin-3-yl-3H-quinazolin-4-one hydrochloride]	≤ 0.1 µM
Cc1cc(OCC2CCOC2)cc2c(=O)[nH]c(-c3cc4cccn4cn3)nc12 (stereo not shown) [Compound 107, 8-methyl-2-pyrrolo[1,2-c]pyrimidin-3-yl-6-(tetrahydro-furan-3-ylmethoxy)-3H-quinazolin-4-one]	≤ 0.1 µM
Cc1cc(N2CCC3(CCOCC3)CC2)cc2c(=O)[nH]c(-c3cc4cccn4cn3)nc12 [Compound 108, 8-methyl-6-(3-oxa-9-aza-spiro[5.5]undec-9-yl)-2-pyrrolo[1,2-c]pyrimidin-3-yl-3H-quinazolin-4-one]	≤ 0.1 µM
Cc1cc(OC2CCN(C3COC3)CC2)cc2c(=O)[nH]c(-c3cc4cccn4cn3)nc12 [Compound 109, 8-methyl-6-(1-oxetan-3-yl-piperidin-4-yloxy)-2-pyrrolo[1,2-c]pyrimidin-3-yl-3H-quinazolin-4-one]	≤ 0.1 µM
Cc1cc(O[C@H](C)C2CCOCC2)cc2c(=O)[nH]c(-c3cc4ccsc4cn3)nc12 [Compound 110-R, R-8-Methyl-6-[1-(tetrahydro-pyran-4-yl)-ethoxy]-2-thieno[2,3-c]pyridin-5-yl-3H-quinazolin-4-one]	≤ 0.1 µM
Cc1cc(O[C@H](C)C2CCOCC2)cc2c(=O)[nH]c(-c3cc(C(F)(F)F)ccn3)nc12 [Compound 111-R, R-8-Methyl-6-[1-(tetrahydro-pyran-4-yl)-ethoxy]-2-(4-trifluoromethyl-pyridin-2-yl)-3H-quinazolin-4-one]	0.1 to 1 µM
Cc1cc(N2CCC3(CCOCC3)CC2)nc2c(=O)[nH]c(-c3cc4ccsc4cn3)nc12 [Compound 113]	0.1 to 1 µM
Cc1cc(CN2CCOCC2)cc2c(=O)[nH]c(-c3cc(C(F)(F)F)ccn3)nc12 [Compound 115, 8-methyl-6-(morpholinomethyl)-2-[4-(trifluoromethyl)-2-pyridyl]-3H-quinazolin-4-one hydrochloride]	≤ 0.1 µM
Cc1cc(CCN2CCOCC2)cc2c(=O)[nH]c(-c3cc(C(F)(F)F)ccn3)nc12 [Compound 117, 8-methyl-6-(2-morpholinoethyl)-2-[4-(trifluoromethyl)-2-pyridyl]-3H-quinazolin-4-one hydrochloride]	≤ 0.1 µM
Cc1cc(CCN2CCCOCC2)cc2c(=O)[nH]c(-c3cnc4sccc4c3)nc12 [Compound 121, 8-Methyl-6-(2-[1,4]oxazepan-4-yl-ethyl)-2-thieno[2,3-b]pyridin-5-yl-3H-quinazolin-4-one hydrochloride]	0.1 to 1 µM
Cc1cc(CCN2CCOCC2)cc2c(=O)[nH]c(-c3cc4cccn4cn3)nc12 [Compound 124, 8-Methyl-6-(2-morpholin-4-yl-ethyl)-2-pyrrolo[1,2-c]pyrimidin-3-yl-3H-quinazolin-4-one hydrochloride]	≤ 0.1 µM
Cc1cc(CC(=O)N2CCOCC2)cc2c(=O)[nH]c(-c3cc4sccc4cn3)nc12 [Compound 126, 8-Methyl-6-(2-morpholino-2-oxoethyl)-2-(thieno[3,2-c]pyridin-6-yl)quinazolin-4(3H)-one]	≤ 0.1 µM
Cc1cc(CN2CCN(C)CC2)cc2c(=O)[nH]c(-c3cc4ccsc4cn3)nc12 [Compound 132, 8-Methyl-6-[(4-methylpiperazin-1-yl)methyl]-2-thieno[2,3-c]pyridin-5-yl-3H-quinazolin-4-one dihydrochloride]	1 to 10 µM
Cc1cc(C(=O)N2CCOCC2)cc2c(=O)[nH]c(-c3cc4cccn4cn3)nc12 [Compound 135, 8-Methyl-6-(morpholine-4-carbonyl)-2-pyrrolo[1,2-c]pyrimidin-3-yl-3H-quinazolin-4-one]	0.1 to 1 µM
Cc1cc(O[C@@H]2CC(=O)N(C)C2)cc2c(=O)[nH]c(-c3cc4sccc4cn3)nc12 [Compound 140-R, 8-Methyl-6-[(3R)-1-methyl-5-oxo-pyrrolidin-3-yl]oxy-2-thieno[3,2-c]pyridin-6-yl-3H-quinazolin-4-one]	≤ 0.1 µM
Cc1cc(O[C@H]2CC(=O)N(C)C2)cc2c(=O)[nH]c(-c3cc4sccc4cn3)nc12 [Compound 140-S, 8-Methyl-6-[(3S)-1-methyl-5-oxo-pyrrolidin-3-yl]oxy-2-thieno[3,2-c]pyridin-6-yl-3H-quinazolin-4-one]	≤ 0.1 µM
Cc1cc(CN2CCN(C)C(=O)C2)cc2c(=O)[nH]c(-c3cc4sccc4cn3)nc12 [Compound 147, 8-Methyl-6-[(4-methyl-3-oxo-piperazin-1-yl)methyl]-2-thieno[3,2-c]pyridin-6-yl-3H-quinazolin-4-one hydrochloride]	≤ 0.1 µM
COC1CCN(Cc2cc(C)c3nc(-c4cc5sccc5cn4)[nH]c(=O)c3c2)CC1 [Compound 152, 6-[(4-Methoxy-1-piperidyl)methyl]-8-methyl-2-thieno[3,2-c]pyridin-6-yl-3H-quinazolin-4-one hydrochloride]	≤ 0.1 µM
Cc1cc(CN2CCOC(C)(C)C2)cc2c(=O)[nH]c(-c3cc4sccc4cn3)nc12 [Compound 153, 6-[(2,2-Dimethylmorpholin-4-yl)methyl]-8-methyl-2-thieno[3,2-c]pyridin-6-yl-3H-quinazolin-4-one hydrochloride]	≤ 0.1 µM
O=c1[nH]c(-c2cc(C(F)(F)F)ccn2)nc2c(Cl)cc(CCN3CCOCC3)cc12 [Compound 154, 8-Chloro-6-(2-morpholinoethyl)-2-(4-(trifluoromethyl)pyridin-2-yl)quinazolin-4(3H)-one hydrochloride]	0.1 to 1 µM
Cc1cc(CN2CCC(C(=O)N(C)C)CC2)cc2c(=O)[nH]c(-c3cc4sccc4cn3)nc12 [Compound 156, N,N-Dimethyl-14(8-methyl-4-oxo-2-(thieno[3,2-c]pyridin-6-yl)-3,4-dihydroquinazolin-6-yl)methyl)piperidine-4-carboxamide hydrochloride]	≤ 0.1 µM
COCC1CCN(Cc2cc(C)c3nc(-c4cc5sccc5cn4)[nH]c(=O)c3c2)CC1 [Compound 157, 6-((4-(Methoxymethyl)piperidin-1-yl)methyl)-8-methyl-2-(thieno[3,2-c]pyridin-6-yl)quinazolin-4(3H)-one hydrochloride]	0.1 to 1 µM

Tested on: not given
Assay: not given
Settings: not given

SMILES	melting point
Cc1cc(CCN2CCOCC2)nc2c(=O)[nH]c(-c3cc(C(F)(F)F)ccn3)nc12.Cl	168 to 173 °C
Cc1cccc(-c2nc3ccc(OCCCc4ccncc4)cc3c(=O)[nH]2)n1 (as salt: hydrochloride) [Compound 12, 2-(6-methyl-2-pyridyl)-6-[3-(4-pyridyl)propoxy]-3H-quinazolin-4-one dihydrochloride]	> 250 °C
Cc1cnc(-c2nc3ccc(OCCCc4ccncc4)cc3c(=O)[nH]2)cn1 (as salt: hydrochloride) [Compound 13, 2-(5-methylpyrazin-2-yl)-6-[3-(4-pyridyl)propoxy]-3H-quinazolin-4-one dihydrochloride]	> 250 °C
O=c1[nH]c(-c2cc(Cl)ccn2)nc2ccc(OCCCc3ccncc3)cc12 (as salt: hydrochloride) [Compound 15, 2-(4-chloro-2-pyridyl)-6-[3-(4-pyridyl)propoxy]-3H-quinazolin-4-one hydrochloride]	232 to 241 °C
O=c1[nH]c(-c2cccc(C(F)(F)F)n2)nc2ccc(OCCCc3ccncc3)cc12 (as salt: hydrochloride) [Compound 17, 6-[3-(4-pyridyl)propoxy]-2-[6-(trifluoromethyl)-2-pyridyl]-3H-quinazolin-4-one hydrochloride]	238 to 250 °C
O=c1[nH]c(-c2cc(C3CC3)ccn2)nc2ccc(OCCCc3ccncc3)cc12 (as salt: hydrochloride) [Compound 19, 2-(4-cyclopropyl-2-pyridyl)-6-[3-(4-pyridyl)propoxy]-3H-quinazolin-4-one dihydrochioride]	110 to 156 °C
Cc1nc(-c2nc3ccc(OCCCc4ccncc4)cc3c(=O)[nH]2)co1 (as salt: hydrochloride) [Compound 22, 2-(2-Methyl-oxazol-4-yl)-6-(3-pyridin-4-yl-propoxy)-3H-quinazolin-4-one hydrochloride]	> 250 °C
Cc1cc(CN2CCOCC2)cc2c(=O)[nH]c(-c3cc(C(F)(F)F)ccn3)nc12 (as salt: hydrochloride) [Compound 115, 8-methyl-6-(morpholinomethyl)-2-[4-(trifluoromethyl)-2-pyridyl]-3H-quinazolin-4-one hydrochloride]	> 250 °C
Cc1cc(CCN2CCOCC2)cc2c(=O)[nH]c(-c3cc(C(F)(F)F)ccn3)nc12 (as salt: hydrochloride) [Compound 117, 8-methyl-6-(2-morpholinoethyl)-2-[4-(trifluoromethyl)-2-pyridyl]-3H-quinazolin-4-one hydrochloride]	> 250 °C
Cc1cc(CCN2CCOCC2)cc2c(=O)[nH]c(-c3cc4cccn4cn3)nc12 (as salt: hydrochloride) [Compound 124, 8-Methyl-6-(2-morpholin-4-yl-ethyl)-2-pyrrolo[1,2-c]pyrimidin-3-yl-3H-quinazolin-4-one hydrochloride]	> 250 °C
Cc1cc(CN2CCN(C)CC2)cc2c(=O)[nH]c(-c3cc4ccsc4cn3)nc12 (as salt: hydrochloride) [Compound 132, 8-Methyl-6-[(4-methylpiperazin-1-yl)methyl]-2-thieno[2,3-c]pyridin-5-yl-3H-quinazolin-4-one dihydrochloride]	> 250 °C
COC1CCN(Cc2cc(C)c3nc(-c4cc5sccc5cn4)[nH]c(=O)c3c2)CC1 (as salt: hydrochloride) [Compound 152, 6-[(4-Methoxy-1-piperidyl)methyl]-8-methyl-2-thieno[3,2-c]pyridin-6-yl-3H-quinazolin-4-one hydrochloride]	205 to 215 °C
